{
  "source": "patent US9144569B2",
  "about": "“Methods of administering an aromatase inhibitor, prostaglandin and GnRH for regulating ovulation in cattle” (UNIVERSITY OF SASKATCHEWAN, priority 2010, dated 2015)",
  "type_in_all_cases": "in vivo, cattle",
  "key": {"[1]": {"test_system": "plasma FSH", "test": "Example I: plasma FSH by double-antibody radioimmunoassay after single iv dose", "details": "by 72 hours after single iv dose, doses combined; P<0.03", "procedure": "Heifers in which a CL was detected during the initial examination were given […] cloprostenol (PGF, Estrumate™, Schering-Plough Animal Health, Pointe-Claire, QC, Canada) intramuscularly (im) to induce regression of the CL and to synchronize ovulation. Heifers were examined daily by transrectal ultrasonography to detect ovulation. Transvaginal ultrasound-guided follicular aspiration of follicles ≧5 mm was performed five to eight days after ovulation to synchronize wave emergence. Heifers were examined daily by transrectal ultrasonography to detect follicular wave emergence, which was expected 1 to 1.5 days after follicular ablation. […] For practical purposes, the dose of letrozole was calculated based on an average weight of 400 kg for all heifers. […]\nStatistical analyses were done using the Statistical Analysis System software package (SAS Learning Edition 9.1, 2006; SAS Institute Inc., Cary, N.C., USA). Time-series hormone data, plasma letrozole concentration, and follicular diameter profiles were analyzed by repeated measures, using the PROC MIXED procedure. […]"}, "[2]": {"test_system": "Hereford-cross beef heifers", "test": "Example I: single intravenous dose of letrozole in heifers, ovarian ultrasonography (follicle and CL dynamics)", "procedure": "Hereford-cross beef heifers, 14 to 20 months of age and weighing between 295 and 450 kg, were chosen from a herd of 50 heifers maintained in outdoor corrals at the University of Saskatchewan Goodale Research Farm (52° North and 106° West). Heifers were fed alfalfa/grass hay and grain to gain approximately 1.3 Kg per day and had water ad libitum during the experimental period from July to October. Heifers were initially examined by transrectal ultrasonography (7.5 MHz linear-array transducer, Aloka SSD-900; Tokyo, Japan) to confirm that they were postpubertal by observing the presence of a CL [33].\n(§1) Heifers in which a CL was detected during the initial examination were given […] cloprostenol (PGF, Estrumate™, Schering-Plough Animal Health, Pointe-Claire, QC, Canada) intramuscularly (im) to induce regression of the CL and to synchronize ovulation. Heifers were examined daily by transrectal ultrasonography to detect ovulation. Transvaginal ultrasound-guided follicular aspiration of follicles ≧5 mm was performed five to eight days after ovulation to synchronize wave emergence. Heifers were examined daily by transrectal ultrasonography to detect follicular wave emergence, which was expected 1 to 1.5 days after follicular ablation. Four days after follicular ablation (approximately 2.5 days after follicular wave emergence), and at the time follicular dominance becomes apparent, heifers were assigned randomly to the following treatment groups and given a single intravenous dose of 1) 500 μg/kg of letrozole (high dose group, n=9), 2) 250 μg/kg of letrozole (medium dose group, n=10), 3) 125 μg/kg of letrozole (low dose group, n=10), or 4) 20 ml of phosphate buffered saline (PBS control group, n=10). For practical purposes, the dose of letrozole was calculated based on an average weight of 400 kg for all heifers. The average oral dose used in women (2.5-5 mg per day for 5 days) was used to estimate the medium dose for cattle. The high and low doses were set as double and half the medium dose, respectively. The day of treatment was defined as Day 0. For intravenous injection, letrozole was prepared in 95% ethanol at a final concentration of 5 mg per ml, resulting in an injection volume of 10-40 ml. The experiment was performed in four replicates (n=2-3 per group per replicate) and each heifer was used only once.\nThe observations from ultrasound examination were recorded on a sketch sheet in which each ovary and its structures (CL and follicles ≧4 mm in diameter) were represented in size and location. Ovulation was defined as the disappearance of any follicle ≧8 mm between two consecutive daily examinations, and was confirmed by the subsequent development of a CL [33]. Follicular wave emergence was defined retrospectively as the day when the dominant follicle was first identified at a diameter of 4 or 5 mm. If the dominant follicle was not identified until it reached 6 or 7 mm, the previous day was considered day of the follicular wave emergence. The dominant follicle of a wave was defined as the largest antral follicle of that wave after deviation, and the first subordinate follicle as the second largest antral follicle of that wave. The day of onset of follicular and luteal regression was defined as the first day of an apparent constant decrease in follicular and luteal diameters, respectively.\n(§2) Statistical analyses were done using the Statistical Analysis System software package (SAS Learning Edition 9.1, 2006; SAS Institute Inc., Cary, N.C., USA). Time-series hormone data, plasma letrozole concentration, and follicular diameter profiles were analyzed by repeated measures, using the PROC MIXED procedure. The main effects were treatment (high, medium and low dose, and control), time, and their interactions."}, "[3]": {"test_system": "plasma LH", "test": "Example III: plasma LH after letrozole IV or IM", "details": "1 mg/kg IV or IM vs placebo", "procedure": "Ovarian cyclicity in heifers was synchronized using transvaginal ultrasound-guided follicular ablation followed by a double dose of PGF 4 days after ablation. The ovaries were examined daily by transrectal ultrasonography to detect ovulation. Three days after ovulation, heifers were assigned randomly to four treatment groups and given letrozole at a dose of 1 mg/kg intravenously (in benzyl alcohol, n=10) or intramuscularly (in benzyl alcohol plus canola oil 1:1 v/v, n=10), or given a placebo intravenously (benzyl alcohol, n=5) or intramuscularly (benzyl alcohol plus canola oil 1:1 v/v, n=5). Ovarian structures were monitored by ultrasonography and blood samples were collected by jugular venipuncture twice daily from pre-treatment to post-treatment ovulations. Comparisons among groups were made by one-way ANOVA for single-point measurements and by ANOVA for repeated measures for time-series data.\nBlood samples collected daily from treatment to post-treatment ovulation.\nEndpoints are: Follicular diameter profiles; CL diameter profile; Circulating progesterone concentration; Circulating FSH and LH profiles; Letrozole profile and bioavailability; Circulating estradiol concentration Follicular fluid estradiol concentration)."}, "[4]": {"test_system": "plasma estradiol", "test": "Example I: plasma estradiol by ELISA after single iv dose", "details": "doses combined", "procedure": "as §1, §2"}},
  "note": "Marks after values point to notes of the source that are not given here.",
  "data": [
    {"smiles": "N#Cc1ccc(C(c2ccc(C#N)cc2)n2cncn2)cc1", "note": "[Letrozole, letrozole]", "values": [
      {"measurement": "plasma FSH concentrations compared to controls", "setting": "[1]", "value": "lower"},
      {"measurement": "number of heifers in which the extant dominant follicle ovulated", "setting": "[2]; high dose 500 μg/kg iv", "value": "5/9"},
      {"measurement": "number of heifers in which the extant dominant follicle ovulated", "setting": "[2]; low dose 125 μg/kg iv", "value": "7/10"},
      {"measurement": "number of heifers in which the extant dominant follicle ovulated", "setting": "[2]; medium dose 250 μg/kg iv", "value": "5/10"},
      {"measurement": "dominant follicle diameter profile compared to control heifers", "setting": "[2]; single iv dose, all dose groups combined (n=29) vs saline controls, P<0.04", "value": "larger"},
      {"measurement": "diameter to which the dominant follicle grew", "setting": "[2]; single iv dose, dose groups combined, control 9.7±0.55, mean±SEM", "value": "11.0±0.32", "unit": "mm"},
      {"measurement": "Treatment to onset of regression of extant dominant follicle", "setting": "[2]; single iv dose, doses combined, n=13, mean±SEM", "value": "8.7 ± 0.47^a days"},
      {"measurement": "Treatment to ovulation of extant dominant follicle", "setting": "[2]; single iv dose, doses combined, n=16, mean±SEM", "value": "9.0 ± 0.42^a days"},
      {"measurement": "Treatment to wave emergence", "setting": "[2]; single iv dose, low-, medium-, high-dose combined, n=29, mean±SEM", "value": "7.5 ± 0.27^a days"},
      {"measurement": "plasma LH concentrations among groups", "setting": "[3]", "value": "did not differ"},
      {"measurement": "plasma estradiol concentration", "setting": "[4]; 0 hours (at treatment), mean±SEM", "value": "15.2 ± 3.01", "unit": "pg/mL"},
      {"measurement": "plasma estradiol concentration", "setting": "[4]; 24 hours after single iv dose, P=0.03 vs 0 hours", "value": "8.0 ± 1.51", "unit": "pg/mL"},
      {"measurement": "decrease of plasma estradiol from 0 to 24 hours after treatment", "setting": "[4]; single iv dose", "value": "~50", "unit": "%"},
      {"measurement": "mean plasma estradiol over the 4-day period after treatment compared to controls", "setting": "[4]; single iv dose, P=0.06", "value": "tended to be higher"}
    ]}
  ]
}
